Laboratory results as given in patent US20230058623A1, “NOVEL HETEROARYL-TRIAZOLE COMPOUNDS AS PESTICIDES” (Bayer Aktiengesellschaft, priority 2019, published 2023).

Key:
Format in all cases: in vivo
[1] = system: Rhipicephalus (Boophilus) microplus larvae (strain Parkhurst, resistant against synthetic pyrethroids); assay: Rhipicephalus (Boophilus) microplus in-vitro contact test, larval cattle tick; conditions: after 48 hours, read-out: activity (efficacy: larvae dead or moribund); for pest or weed control at 1 µg/cm2, 100 g/ha: application rate 1 μg/cm^2 (=100 g/ha); for pest or weed control at 5 µg/cm2, 500 g/ha: application rate 5 μg/cm^2 (=500 g/ha)
Method in brief: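 Pyrethroid-resistant Parkhurst larvae, 20–50 per tube, were kept 48 h at 27 °C and 85% relative humidity in glass tubes whose inner walls carried a dried acetone film of compound (900 ppm giving 5 μg/cm^2). Dead or moribund larvae, judged by loss of negative geotactic behavior, set percent efficacy.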

[2] = system: adult engorged female ticks (Rhipicephalus microplus); assay: Rhipicephalus (Boophilus) microplus injection test; conditions: 168 h, application rate 4 μg/tick, egg deposition after 7 days, read-out: activity (efficacy: infertile eggs)
Method in brief: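 Compound in DMSO (10 mg per 0.5 mL, then diluted with DMSO to test concentration); 1 μL injected into the abdomen of each of five engorged females, then held in a climate chamber. Fertile egg deposition checked at 7 days; efficacy 100% = all eggs infertile, 0% = all fertile.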

[3] = system: adult unfed cat fleas (Ctenocephalides felis); assay: Ctenocephalides felis oral test; conditions: 48 h, read-out: activity (mortality)
Method in brief: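 About 20 adult unfed cat fleas fed through parafilm on citrated cattle blood containing compound (from a DMSO concentrate). Blood held at 37° C, fleas at room temperature. Mortality in % scored after 2 days.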

[4] = system: southern root-knot nematode (Meloidogyne incognita); assay: Meloidogyne incognita test; conditions: application rate 20 ppm; after 14 days
Method: Meloidogyne incognita—Test
Solvent: 125.0 parts by weight of acetone
To produce a suitable preparation of active compound, 1 part by weight of active compound is mixed with the stated amount of solvent, and the concentrate is diluted with water to the desired concentration.
Vessels are filled with sand, a solution of the active ingredient, a suspension containing eggs and larvae of the southern root-knot nematode (Meloidogyne incognita) and salad seeds. The salad seeds germinate and the seedlings grow. Galls develop in the roots.
After 14 days the nematicidal activity is determined based on the percentage of gall formation. 100% means no galls were found and 0% means the number of galls found on the roots of the treated plants was equal to that in untreated control plants.

[5] = system: adult brown dog ticks (Rhipicephalus sanguineus); assay: Rhipicephalus sanguineus in-vitro contact test, adult brown dog ticks; conditions: application rate 5 μg/cm^2 (=500 g/ha), after 48 hours, read-out: activity (efficacy: ticks dead or moribund)
Method in brief: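 Glass tubes are coated with compound dissolved in acetone, a 900 ppm solution yielding 5 μg/cm^2 on the inner surface. Adult ticks (5-10 per tube) are kept on the dry film at room temperature for 48 h, then those unable to escape 45-50° C heat are counted as dead or moribund.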

[6] = system: adult cat fleas (Ctenocephalides felis); assay: Ctenocephalides felis in-vitro contact test, adult cat flea; conditions: application rate 5 μg/cm^2 (=500 g/ha), after 48 hours, read-out: activity (efficacy: fleas dead or moribund)
Method in brief: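 After 48 h of room-temperature exposure in tubes whose walls carried dried compound residue (5 μg/cm^2, from 900 ppm acetone solution), adult cat fleas (5-10 per tube) were heat-challenged at 45-50° C up to 5 min. Fleas unable to climb away were counted dead or moribund, expressed as % efficacy.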

[7] = system: green peach aphid (Myzus persicae); assay: Myzus persicae oral test; conditions: 120 h, read-out: activity (mortality)
Method in brief: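 Five-day oral feeding assay measuring percent mortality of a mixed aphid population that draws compound-containing sugared IPL41 medium through sealing parafilm; the test preparation derives from 1 part compound per 100 parts acetone, diluted with water.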

[8] = system: green peach aphid (Myzus persicae); assay: Myzus persicae spray test; conditions: foliar, 120 h, after 5 days, Chinese cabbage leaf disks; for mortality at 100 g/ha: application rate 100 g/ha, read-out: activity (mortality)
Method in brief: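 Percent kill was recorded 5 days after spraying. Test solutions, prepared with solvent and diluted in 1000 ppm emulsifier water, were applied to Brassica pekinensis leaf disks carrying mixed-instar green peach aphids.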

[9] = system: larvae of the banded cucumber beetle (Diabrotica balteata); assay: Diabrotica balteata spray test; conditions: 168 h, after 7 days, wheat seeds, read-out: activity (efficacy: seedlings grown); for pest or weed control at 32 µg/disc, 100 g/ha: application rate 100 g/ha (=32 μg/well)
Method in brief: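 Efficacy (%) read 7 days after infesting treated seedlings with 10-20 banded cucumber beetle larvae, 100% meaning growth as in uninfected untreated control and 0% no growth. Test solutions in water containing 1000 ppm emulsifier were sprayed onto wheat seeds germinated for 1 day on agar.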

[10] = system: larvae of the southern green stink bug (Nezara viridula); assay: Nezara viridula spray test; conditions: 96 h, after 4 days, barley plants; for mortality at 500 g/ha: application rate 500 g/ha, read-out: activity (mortality)
Method in brief: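 Barley plants sprayed with the active compound in emulsifier-containing water, then infested with stink bug larvae. Mortality scored in % after 4 days, with 100% meaning all insects killed.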

[11] = system: fall armyworm larvae (Spodoptera frugiperda); assay: Spodoptera frugiperda spray test; conditions: 168 h, application rate 100 g/ha, after 7 days, maize leaf sections
Method in brief: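 Leaf-spray assay on maize: sections treated with active ingredient at the desired concentration in emulsifier-containing water (1000 ppm) and, once dry, exposed to armyworm caterpillars. Kill rate is expressed in percent after seven days.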

[12] = system: adult mosquitoes Aedes aegypti strain MONHEIM; assay: Aedes aegypti test (AEDSAE surface treatment & contact assay); conditions: 24 hours after contact, read-out: efficacy (mortality); for mortality at 20 mg/m2: surface concentration 20 mg/m^2, exposure 30 minutes
Method in brief: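 Compound in acetone (2 mg/ml) with 2000 ppm RME dried onto glazed tile; adults exposed to the treated surface for 30 min. Percent mortality scored 24 h after contact.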

[13] = system: adult flies Musca domestica strain WHO-N; assay: Musca domestica test (MUSCDO surface treatment & contact assay); conditions: surface concentration 20 mg/m^2, exposure 30 minutes, 24 hours after contact, read-out: efficacy (mortality)
Method in brief: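 Compound dissolved at 2 mg/ml in acetone with 2000 ppm RME, applied to glazed tile and dried; adult flies exposed on the surface for 30 min. Percent mortality scored 24 h after contact.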

[14] = system: brown planthopper (Nilaparvata lugens); assay: Nilaparvata lugens spray test; conditions: 96 h, application rate 500 g/ha, after 4 days, rice plants
Method: Nilaparvata lugens—Spray Test
To produce a suitable preparation of active compound, 1 part by weight of active compound is mixed with the stated amount of solvents and is diluted with water, containing an emulsifier concentration of 1000 ppm, to the desired concentration. Further test concentrations are prepared by dilution with emulsifier containing water.
Rice plants (Oryza sativa) are sprayed with a preparation of the active ingredient of the desired concentration and the plants are infested with the brown planthopper (Nilaparvata lugens).
After 4 days mortality in % is determined. 100% means all planthoppers have been killed and 0% means none of the planthoppers have been killed.

[15] = system: cattle ticks (Rhipicephalus microplus) strain Parkhurst, SP-resistant; assay: Rhipicephalus (Boophilus) microplus dip test; conditions: 168 h, application rate 100 ppm, egg deposition after 7 days, read-out: activity (efficacy: infertile eggs)
Method: Rhipicephalus (Boophilus) microplus—Dip Test
Test animal: cattle ticks (Rhipicephalus microplus) strain Parkhurst, SP-resistant
Solvent: dimethyl sulfoxide
To produce a suitable preparation of active compound, 10 mg of active compound are dissolved in 0.5 mL solvent, and the concentrate is diluted with water to the desired concentration.
This compound solution is pipetted into tubes. 8-10 engorged, adult, female cattle ticks (Rhipicephalus microplus) are placed in perforated tubes. These tubes are immersed in the aqueous compound solution until the ticks are completely moistened. After the liquid has drained off, the ticks are transferred to a filter paper in a plastic tray and stored in a climate chamber.
After 7 days egg deposition of fertile eggs is monitored. Eggs where fertility is not visible are stored in a climate chamber till hatching after about 42 days. An efficacy of 100% means all eggs are infertile; 0% means all eggs are fertile.

Row | SMILES | pest or weed control at 1 µg/cm2, 100 g/ha [1] [%] | pest or weed control at 5 µg/cm2, 500 g/ha [1] [%] | pest or weed control at 0.004 mg [2] [%] | mortality at 100 ppm [3] [%] | activity (nematicidal activity based on gall formation) [4] [%] | pest or weed control at 5 µg/cm2, 500 g/ha [5] [%] | pest or weed control at 5 µg/cm2 [6] [%] | mortality at 4 ppm [7] [%] | mortality at 100 g/ha [8] [%] | pest or weed control at 32 µg/disc, 100 g/ha [9] [%] | mortality at 500 g/ha [10] [%] | mortality at 100 g/ha [11] [%] | mortality at 20 mg/m2 [12] [%] | mortality at 20 mg/m2 [13] [%] | mortality at 100 g/ha ([10]; application rate 100 g/ha) [%] | mortality at 500 g/ha [14] [%] | pest or weed control at 100 ppm [15] [%] | pest or weed control at 160 µg/disc, 500 g/ha ([9]; application rate 500 g/ha (=160 μg/well)) [%] | mortality at 500 g/ha ([8]; application rate 500 g/ha) [%] | mortality at 4 mg/m2 ([12]; surface concentration 4 mg/m^2, exposure 30 minutes) [%]
1 | Cc1nc([C@H](C)NC(=O)c2cc(Cl)cc(C(F)(F)F)c2)n(-c2cc(C(=O)N3CCC3)ccn2)n1 [Example I-28] | 90 | 90 | 80 | 100 | 90 | – | – | – | – | – | – | – | – | – | – | – | – | – | – | –
2 | Cc1nc([C@H](C)NC(=O)c2cc(Cl)cc(C(F)(F)F)c2)n(-c2cc(C(=O)N3CCCC3)ccn2)n1 [Example I-27] | 100 | 100 | 80 | 100 | 90 | 80 | – | – | – | – | – | – | – | – | – | – | – | – | – | –
3 | COC1CCN(C(=O)c2ccc(-n3ncnc3[C@H](C)NC(=O)c3cc(Cl)cc(C(F)(F)F)c3)nc2)CC1 [Example I-30] | 100 | 100 | 100 | – | 90 | – | 80 | 100 | 90 | – | – | – | – | – | – | – | – | – | – | –
4 | C[C@H](NC(=O)c1cc(C(F)(F)F)cc(C(F)(F)F)c1)c1nc(C2CC2)nn1-c1ccc(C(=O)N2CCOCC2)cn1 [Example I-88] | 100 | 100 | – | – | 100 | 100 | 100 | – | 90 | 100 | 100 | 100 | 80 to 100 | 80 to 100 | – | – | – | – | – | –
5 | CC1CN(C(=O)c2ccc(-n3ncnc3[C@H](C)NC(=O)c3cc(C(F)(F)F)cc(S(C)(=O)=O)c3)nc2)CCO1 (stereo partly shown) [Example I-81] | – | – | – | – | 100 | – | – | 100 | – | – | 100 | – | – | – | 100 | 100 | – | – | – | –
6 | Cc1nc([C@H](C)NC(=O)c2cc(C(F)(F)F)cc(C(F)(F)F)c2)n(-c2ncc(C(=O)N3C[C@@H](C)O[C@@H](C)C3)s2)n1 [Example I-107] | 100 | 100 | 100 | 100 | – | 100 | – | 100 | – | 100 | – | 100 | – | 80 to 100 | – | – | 100 | – | – | –
7 | Cc1nc([C@H](C)NC(=O)c2cc(C(F)(F)F)cc(C(F)(F)F)c2)n(-c2ccc(C(=O)N3C[C@@H](C)O[C@H](C)C3)cn2)n1 [Example I-47] | 100 | 100 | 100 | 90 | – | 100 | 100 | 100 | 100 | – | – | 100 | – | – | – | – | 100 | – | – | –
8 | C[C@H](NC(=O)c1cc(Cl)cc(C(F)(F)F)c1)c1ncnn1-c1ccc(C(=O)N2CCOCC2)cn1 [Example I-1] | – | – | 100 | 100 | – | – | 100 | 100 | 100 | – | 100 | 100 | 80 to 100 | – | – | 100 | 80 | 100 | 100 | 80 to 100
